Reference: ChEMBL document CHEMBL1201862, “PubChem BioAssay data set” (2004)
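1) Cells in 96-well plates. 2) Compound, 48 h, 5 concentrations. 3) Linear interpolation between surrounding doses. 4) Unreached endpoint = highest concentration. GI50: concentration for 50% inhibition of growth.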 Activity calls are given as the source filed them. Cut-off read from the data, not from the text of the source: active = GI50 up to about 1.1 µM and inactive = higher.

How the values were obtained:
Assay in all cases: inhibition of tumour cell growth, NCI panel, 48 h
MOLT-4 = tested on: MOLT-4
HL-60 = tested on: HL-60
HOP-62 = tested on: HOP-62
IGROV-1 = tested on: IGROV-1
MDA-N = tested on: MDA-N
NCI/ADR-RES = tested on: NCI/ADR-RES
OVCAR-3 = tested on: OVCAR-3
NCI-H460 = tested on: NCI-H460
SF-268 = tested on: SF-268
OVCAR-5 = tested on: OVCAR-5
CAKI-1 = tested on: CAKI-1
MDA-MB-231 = tested on: MDA-MB-231
UACC-257 = tested on: UACC-257
HT-29 = tested on: HT-29
RPMI-8226 = tested on: RPMI-8226
RXF 393 = tested on: RXF 393
EKVX = tested on: EKVX
SK-MEL-2 = tested on: SK-MEL-2
A498 = tested on: A498

Measured: GI50

O=c1[nH]c(=O)n(C2CC(O)C(CO)O2)cc1OCc1ccccc1 (stereo unspecified)
inactive: MOLT-4 > 100 µM | HL-60 > 100 µM | HOP-62 > 100 µM | IGROV-1 > 100 µM | MDA-N > 100 µM | NCI/ADR-RES > 100 µM | OVCAR-3 > 100 µM | NCI-H460 > 100 µM | SF-268 > 100 µM | OVCAR-5 > 100 µM | CAKI-1 > 100 µM | MDA-MB-231 > 100 µM | UACC-257 > 100 µM | HT-29 > 100 µM | RPMI-8226 > 100 µM | RXF 393 > 100 µM | EKVX > 100 µM

Nc1nc(Nc2ccc(Cl)cc2)sc1C(=O)c1cccs1
inactive: MOLT-4 > 100 µM | HL-60 > 100 µM | HOP-62 25.6 µM | IGROV-1 39.6 µM | SK-MEL-2 98.9 µM | MDA-N > 100 µM | NCI/ADR-RES 50.6 µM | OVCAR-3 5.57 µM | NCI-H460 17.9 µM | SF-268 28.7 µM | OVCAR-5 > 100 µM | MDA-MB-231 40 µM | UACC-257 > 100 µM | HT-29 6.18 µM | RPMI-8226 > 100 µM | RXF 393 17.2 µM | A498 19.1 µM | EKVX 20 µM

COC(CNC(=O)CNC(=O)c1ccc(C(F)(F)F)cc1)OC
inactive: MOLT-4 > 100 µM | HL-60 > 100 µM | IGROV-1 > 100 µM | SK-MEL-2 > 100 µM | MDA-N > 100 µM | NCI/ADR-RES > 100 µM | NCI-H460 > 100 µM | SF-268 > 100 µM | OVCAR-5 > 100 µM | CAKI-1 > 100 µM | MDA-MB-231 > 100 µM | UACC-257 > 100 µM | HT-29 > 100 µM | RPMI-8226 > 100 µM | RXF 393 > 100 µM | EKVX > 100 µM

O=C(/C=C/c1ccc2c(c1)OCO2)c1ccccc(=O)c1O
inactive: MOLT-4 6.27 µM | HOP-62 20.9 µM | IGROV-1 5.77 µM | SK-MEL-2 20.8 µM | MDA-N 16.4 µM | NCI/ADR-RES 2.08 µM | OVCAR-3 10.7 µM | NCI-H460 3.28 µM | SF-268 3.42 µM | CAKI-1 5.98 µM | MDA-MB-231 37.9 µM | UACC-257 17.9 µM | HT-29 9.51 µM | RPMI-8226 7.14 µM | A498 29.9 µM | EKVX 20.7 µM

CC1(C)CC(=O)c2c(nc3c(ccc4ccccc43)c2-c2ccc(NC(=O)CCCCC(=O)Nc3ccc(-c4c5c(nc6c4ccc4ccccc46)CC(C)(C)CC5=O)cc3)cc2)C1
inactive: MOLT-4 13.7 µM | HL-60 29.6 µM | HOP-62 32.7 µM | IGROV-1 14 µM | SK-MEL-2 33 µM | MDA-N 26.4 µM | NCI/ADR-RES 23.8 µM | OVCAR-3 25.6 µM | NCI-H460 27.7 µM | SF-268 28.2 µM | OVCAR-5 30.9 µM | CAKI-1 35.3 µM | MDA-MB-231 19.3 µM | UACC-257 39.2 µM | HT-29 22.5 µM | RPMI-8226 18.8 µM | RXF 393 78.3 µM | EKVX 21.2 µM

COCO[C@@H]1C[C@H]2C(=O)N(COC)c3ccccc3C(=O)N2C1
inactive: MOLT-4 > 100 µM | HL-60 > 100 µM | HOP-62 > 100 µM | IGROV-1 > 100 µM | SK-MEL-2 > 100 µM | MDA-N > 100 µM | NCI/ADR-RES > 100 µM | SF-268 > 100 µM | OVCAR-5 > 100 µM | CAKI-1 > 100 µM | MDA-MB-231 > 100 µM | UACC-257 > 100 µM | HT-29 > 100 µM | RXF 393 > 100 µM | A498 > 100 µM | EKVX > 100 µM
